We go through 21 compounds from ChEMBL document CHEMBL5584289, “Molecular understanding of the therapeutic potential of melanin inhibiting natural products” (RSC Med Chem, 2024).

A short description of data set [1]: Acute toxicity in zebrafish embryos assessed as lethal concentration compound measured for every 24 hrs in 96 hrs. The arrangement: species or system Danio rerio. The note with it: in vivo.
The nature of data set [2]: Inhibition of Artocarpus chama tyrosinase.
Data set [3] has as its target T1, Mushroom tyrosinase (Agaricus bisporus, UniProt O42713+Q00024+C7FF04+C7FF05). Nature of the data set: Inhibition of mushroom tyrosinase monophenolase activity. The format is protein assay.
Data set [4] has as its target T2, Mushroom tyrosinase (Agaricus bisporus) (UniProt O42713+Q00024+C7FF04+C7FF05). As to the kind of experiment: Inhibition of mushroom tyrosinase at 25 uM using L-tyrosine as substrate incubated for 30 mins relative to control. Type of data set: protein assay.
Data set [5] is described as follows: Antioxidant activity assessed as interaction reducing activity with DPPH at 10 uM measured after 1 hr by absorbance based assay. Type of data set: functional.
Data set [6] is described as follows: Antioxidant activity assessed as DPPH radical scavenging activity. The format is functional.
Data set [7] in a line: Antioxidant activity assessed as hydroxyl radical scavenging activity at 10 uM. Type of data set: functional.
In data set [8] the test system is B16-F10. As to the kind of experiment: Cytotoxicity against mouse B16-F10 cells assessed as reduction in cell viability at 15 uM incubated for 72 hrs relative to control. Type of data set: functional.
Data set [9] concerns the target T2, Mushroom tyrosinase (Agaricus bisporus). As to the kind of experiment: Inhibition of mushroom tyrosinase at 50 ug/ml relative to control. Type of data set: protein assay. The note with it: dose 50.0 µg/ml.
Data set [10] can be described thus: Antioxidant activity assessed as ABTS radical scavenging activity. Type of data set: functional.
The nature of data set [11]: Antioxidant activity assessed as DPPH radical scavenging activity measured after 30 mins. The format is functional.
The target in data set [12] is T1, Mushroom tyrosinase. Nature of the data set: Inhibition of mushroom tyrosinase. Type of data set: protein assay.
In data set [13] the test system is MNT-1. As to the kind of experiment: Antiproliferative activity against human MNT-1 cells assessed as reduction in cell viability incubated for 72 hrs by MTT assay. The format is functional, cell-based. The following applies: MNT-1, 72 h.
Data set [14] concerns the target T1, Mushroom tyrosinase. As to the kind of experiment: Inhibition of mushroom tyrosinase diphenolase activity. Type of data set: protein assay.
For data set [15], the target named is T2, Mushroom tyrosinase (Agaricus bisporus). Nature of the data set: Inhibition of mushroom tyrosinase monophenolase activity at 12.5 ug/ml using L-tyrosine as substrate relative to control. Type of data set: protein assay. The note with it: dose 12.5 µg/ml.
The target is the same in data set [16]. As to the kind of experiment: Inhibition of mushroom tyrosinase at 12.5 ug/ml using L-DOPA as substrate relative to control. The following applies: dose 12.5 µg/ml. Type of data set: protein assay.
Data set [17] concerns B16. As to the kind of experiment: Cytotoxicity against mouse B16 cells assessed as inhibition of cell proliferation incubated for 48 hrs by MTS assay. Type of data set: functional, cell-based. The note with it: B16, 48 h.
Data set [18] has as its system B16-F10. As to the kind of experiment: Cytotoxicity against mouse B16-F10 cells. The format is functional, cell-based.
In data set [19] the test system is B16-F10. Nature of the data set: Antimelanogenic activity against alpha-MSH-stimulated mouse B16-F10 cells assessed as intracellular melanin production level at 10 uM pre-incubated for 1 hrs followed by alph-MSH stimulation and measured after 72 hrs by microplate reader analysis. The following applies: time 73 hrs. Type of data set: functional.

Values after ≈ are worked out from the molar mass of the structure shown. Peptide text beside a SMILES is read from it.

As for `COc1c(O)c(OC)c2c(oc3c(O)cccc32)c1OC`, the LC50 at 24 h in data set [1] was 4 µg/mL (≈ 13.8 µM).
Same read-out and setting: in the case of `COc1cc2c(oc3c(O)cccc32)c(OC)c1OC` it was 37 µg/mL (≈ 135 µM).
On to `COc1cc(O)c2c(c1)OC(c1ccc(O)cc1O)CC2=O` (stereo unspecified), for which the IC50 in data set [2] came to 38.78 µg/mL (≈ 128 µM).
For `C[C@@]12C[C@@]3(O)O[C@@H](O1)[C@]1(COC(=O)c4ccccc4)[C@H]3C[C@@]12O[C@@H]1O[C@H](COC(=O)c2cc(O)c(O)c(O)c2)[C@@H](O)[C@H](O)[C@H]1O`, the IC50 in [3] amounted to 0.17 µM. The compound also returned an inhibition in [4] of 94.9%.
For the compound `CC(=O)CC(=O)c1ccc(O)c(O)c1`, the IC50 in data set [5] worked out at 69.1 µM; in data set [6] (read-out: IC50), 11.3 µM; in data set [7] it was 9.3 µM.
Consider `COc1ccc2c(c1)oc1c(OC)c(O)c(OC)cc12`, for which the LC50 at 24 h in data set [1] was 30 µg/mL (≈ 109 µM).
With `COc1cc2c(cc1O)[C@@H]1COc3cc(O)ccc3[C@@H]1O2`, in data set [8], the Activity was 14%.
In data set [9], `O=C(O)CC(OC(=O)/C=C/c1ccc(O)cc1)C(=O)O` (stereo unspecified) gave an inhibition of 16.3%.
On to `NCCCC[C@H](NC(=O)[C@H](Cc1cnc[nH]1)NC(=O)CN)C(=O)O` (H-Gly-His-Lys-OH), for which the LC50 at 24 h in data set [1] was determined as 30 µg/mL (≈ 88.1 µM).
Turning to `O=C1O[C@H]([C@@H](O)CO)C(O)=C1O` [ASCORBIC ACID], the values for the IC50 in data set [10], in data set [6] and in data set [11] were 44.62 µg/mL (≈ 253 µM), 67.45 µg/mL and 5.65 µg/mL (≈ 32.1 µM), respectively.
`O=C(/C=C/c1ccc(O)c(O)c1)OC(C(=O)O)C(O)C(=O)O` (stereo unspecified) [CAFFEOYLTARTARIC ACID] showed an IC50 in data set [12] of 30 µM.
Regarding `COc1cc(O)c2c(=O)c(-c3ccc(O)cc3O)coc2c1` [CAJANIN], the IC50 in data set [13] was found to be 1 µM.
For the compound `Oc1cc(O)c2c(c1)O[C@H](c1ccc(O)c(O)c1)[C@@H](O)C2` [CIANIDANOL], the results for the IC50 in [14] and in [3] were 0.07 µM and 0.06 µM, respectively.
`CC1(C)[C@@H](O)CC[C@]2(C)[C@H]3C(=O)C=C4[C@@H]5C[C@@](C)(C(=O)O)CC[C@]5(C)CC[C@@]4(C)[C@]3(C)CC[C@@H]12` [ENOXOLONE] had an inhibition in [4] of 92.6%. For the same compound, in [6], the IC50 amounted to 7.31 µg/mL.
Take `O=C(O)c1cc(O)c(O)c(O)c1` [GALLIC ACID]: the IC50 in [14] was determined as 1.06 µM; in [3], 1.53 µM.
The corresponding values for `O=C(OC[C@H]1O[C@@H](OC(=O)c2cc(O)c(O)c(O)c2)[C@H](OC(=O)c2cc(O)c(O)c(O)c2)[C@@H](OC(=O)c2cc(O)c(O)c(O)c2)[C@@H]1OC(=O)c1cc(O)c(O)c(O)c1)c1cc(O)c(O)c(O)c1` [PENTAGALLOYL GLUCOSE] are 0.02 µM and 0.02 µM.
Take `C=C(CC[C@@H](C(=O)O)[C@H]1[C@H](O)C[C@@]2(C)C3=CC[C@@H](C(=C)C)[C@](C)(CCC(=O)O)C3=CC[C@]12C)C(C)C` [PORICOIC ACID A]: the inhibition in [15] was 39.5%; in [16], 40.9%. For the same compound, the IC50 in [17] was 48 µg/mL (≈ 96.3 µM).
Turning to `COc1c(O[C@@H]2O[C@H](CO)[C@@H](O)[C@H](O)[C@H]2O)cc2occ(-c3ccc(O)cc3)c(=O)c2c1O` [TECTORIDIN], the IC50 in [10] came to 135.31 µg/mL (≈ 293 µM); in data set [11], 69.36 µg/mL (≈ 150 µM); in [12], 2.62 µg/mL.
The corresponding values for `COc1c(O)cc2occ(-c3ccc(O)cc3)c(=O)c2c1O` [TECTORIGENIN] are 45.6 µg/mL (≈ 152 µM), 46.34 µg/mL (≈ 154 µM) and 1.39 µg/mL.
In the case of `Cc1ccc(C(C)C)c(O)c1` [THYMOL], in [18], the IC50 stood at 160 µM.
Consider `C/C1=C\CC(C)(C)/C=C/C(=O)/C(C)=C/CC1` [ZERUMBONE], for which, in data set [19], the Activity was found to be 40%.
